The target in series [1] is Tyrosine-protein kinase Lyn (Homo sapiens, UniProt P07948). The experiment in a line: Inhibition of Lyn.
In series [2] the target is Protein kinase C theta type (Homo sapiens, UniProt Q04759). Put plainly: Inhibition of human full length PKCtheta.
Series [3] concerns the target Protein kinase C delta type (Homo sapiens, UniProt Q05655). The experiment in a line: Inhibition of human full length PKCdelta.
Series [4] has as its target Tyrosine-protein kinase Lck (Homo sapiens, UniProt P06239).
The species named for series [5] is Homo sapiens. The experiment in a line: Selectivity ratio of IC50 for human full length PKCdelta to IC50 for human full length PKCtheta.
In series [6] the target is Protein kinase C beta type (Homo sapiens, UniProt P05771). Put plainly: Inhibition of human full length PKCbeta.
Sequence of Protein kinase C beta type (P05771 whole entry): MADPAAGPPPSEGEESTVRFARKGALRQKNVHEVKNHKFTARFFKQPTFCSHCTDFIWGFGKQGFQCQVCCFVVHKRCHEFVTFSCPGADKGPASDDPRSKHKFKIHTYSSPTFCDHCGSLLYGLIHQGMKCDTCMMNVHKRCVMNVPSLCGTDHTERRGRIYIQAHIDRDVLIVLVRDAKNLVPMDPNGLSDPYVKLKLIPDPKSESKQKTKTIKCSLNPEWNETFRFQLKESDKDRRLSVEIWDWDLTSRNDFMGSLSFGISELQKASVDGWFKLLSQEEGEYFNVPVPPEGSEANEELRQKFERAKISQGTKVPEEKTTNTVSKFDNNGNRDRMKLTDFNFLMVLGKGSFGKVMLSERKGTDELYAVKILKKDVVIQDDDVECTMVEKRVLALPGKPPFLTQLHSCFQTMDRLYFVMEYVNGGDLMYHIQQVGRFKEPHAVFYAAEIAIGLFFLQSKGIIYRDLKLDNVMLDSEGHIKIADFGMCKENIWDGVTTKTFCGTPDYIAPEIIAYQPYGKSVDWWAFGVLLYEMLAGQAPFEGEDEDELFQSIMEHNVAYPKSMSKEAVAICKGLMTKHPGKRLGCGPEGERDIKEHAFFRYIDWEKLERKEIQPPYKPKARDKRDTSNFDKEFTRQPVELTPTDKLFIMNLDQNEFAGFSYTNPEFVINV
Series [7] addresses Protein kinase C eta type (Homo sapiens, UniProt P24723). The experiment in a line: Inhibition of human full length PKCeta.
In series [8] the target is T1, Protein kinase C epsilon type (Homo sapiens, UniProt Q02156).
T1 sequence (Q02156 whole entry): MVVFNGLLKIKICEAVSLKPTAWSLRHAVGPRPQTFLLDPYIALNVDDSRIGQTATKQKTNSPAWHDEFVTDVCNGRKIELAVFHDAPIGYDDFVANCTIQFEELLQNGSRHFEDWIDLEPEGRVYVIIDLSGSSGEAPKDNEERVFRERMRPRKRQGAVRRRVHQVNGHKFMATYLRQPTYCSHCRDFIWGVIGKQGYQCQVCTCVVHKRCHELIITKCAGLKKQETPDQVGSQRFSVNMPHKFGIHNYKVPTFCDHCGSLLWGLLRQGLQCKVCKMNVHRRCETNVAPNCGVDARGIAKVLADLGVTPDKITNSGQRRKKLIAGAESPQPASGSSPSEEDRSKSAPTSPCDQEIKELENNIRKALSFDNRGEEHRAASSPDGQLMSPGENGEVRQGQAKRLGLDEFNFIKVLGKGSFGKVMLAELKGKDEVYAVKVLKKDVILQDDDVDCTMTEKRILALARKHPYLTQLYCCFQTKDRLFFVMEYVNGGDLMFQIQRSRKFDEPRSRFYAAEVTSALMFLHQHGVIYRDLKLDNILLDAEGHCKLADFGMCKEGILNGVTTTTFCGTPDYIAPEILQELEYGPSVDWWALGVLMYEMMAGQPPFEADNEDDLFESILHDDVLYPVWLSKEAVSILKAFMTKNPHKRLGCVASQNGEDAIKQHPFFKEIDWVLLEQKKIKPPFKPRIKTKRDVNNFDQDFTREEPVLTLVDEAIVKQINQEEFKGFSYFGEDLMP
The experiment in a line: Inhibition of human full length PKCepsilon.

In series [9] the target is Proto-oncogene tyrosine-protein kinase Src (Homo sapiens, UniProt P12931). The experiment in a line: Inhibition of Src.
Sequence of Proto-oncogene tyrosine-protein kinase Src (P12931 2-536 limits assumed): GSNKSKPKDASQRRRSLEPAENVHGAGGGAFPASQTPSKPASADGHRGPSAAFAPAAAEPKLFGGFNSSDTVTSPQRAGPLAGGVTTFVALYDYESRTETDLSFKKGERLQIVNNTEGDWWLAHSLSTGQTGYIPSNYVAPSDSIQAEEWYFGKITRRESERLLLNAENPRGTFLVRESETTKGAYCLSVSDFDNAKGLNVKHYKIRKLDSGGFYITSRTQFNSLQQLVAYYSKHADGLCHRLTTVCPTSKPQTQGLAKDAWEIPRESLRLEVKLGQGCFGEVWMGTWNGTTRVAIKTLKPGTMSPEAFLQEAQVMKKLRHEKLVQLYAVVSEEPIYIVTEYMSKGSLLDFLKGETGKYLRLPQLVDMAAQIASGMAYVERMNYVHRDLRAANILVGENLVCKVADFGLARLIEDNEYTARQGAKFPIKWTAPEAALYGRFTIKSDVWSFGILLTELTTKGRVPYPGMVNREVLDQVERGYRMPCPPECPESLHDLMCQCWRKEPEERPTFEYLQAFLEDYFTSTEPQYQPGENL
Series [10] deals with Tyrosine-protein kinase HCK (Homo sapiens, UniProt P08631). Put plainly: Inhibition of Hck.
For series [11], the target named is Tyrosine-protein kinase Fyn (Homo sapiens, UniProt P06241). Put plainly: Inhibition of Fyn.
Sequence of Tyrosine-protein kinase Fyn (P06241 whole entry): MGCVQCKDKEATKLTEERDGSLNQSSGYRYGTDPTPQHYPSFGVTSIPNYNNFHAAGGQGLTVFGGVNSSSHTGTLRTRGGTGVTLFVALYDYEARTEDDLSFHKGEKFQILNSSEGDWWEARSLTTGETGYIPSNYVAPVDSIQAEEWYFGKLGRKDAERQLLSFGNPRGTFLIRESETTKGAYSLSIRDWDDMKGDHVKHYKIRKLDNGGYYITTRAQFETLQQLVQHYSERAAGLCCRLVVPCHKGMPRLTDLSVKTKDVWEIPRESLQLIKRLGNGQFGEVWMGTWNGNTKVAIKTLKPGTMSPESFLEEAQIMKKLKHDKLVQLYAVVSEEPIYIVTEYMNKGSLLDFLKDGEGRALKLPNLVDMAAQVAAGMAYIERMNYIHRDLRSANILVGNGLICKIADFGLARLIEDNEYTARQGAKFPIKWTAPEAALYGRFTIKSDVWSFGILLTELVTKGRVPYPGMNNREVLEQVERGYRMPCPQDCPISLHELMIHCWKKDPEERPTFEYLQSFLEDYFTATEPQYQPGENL
The nature of series [12]: Inhibition of VEGFR.
Series [13] in a line: Inhibition of PDGFR.
The target of series [14] is MAP kinase-activated protein kinase 2 (Homo sapiens, UniProt P49137). Put plainly: Inhibition of MK2.
Series [15] in a line: Inhibition of p38.
The nature of series [16]: Membrane permeability by PAMPA. The series is classed as ADME. To be noted: read-out: permeability.
Series [17] is described as follows: Solubility at pH 7.4. The format is physicochemical. Conditions: buffer.
Series [18] in a line: Metabolic stability in mouse liver microsomes. The series is classed as ADME, Microsome.
A short description of series [19]: Metabolic stability in rat liver microsomes. The format is ADME, Microsome.
Series [20] is described as follows: Metabolic stability in human liver microsomes. The series is classed as ADME, Microsome.

SMILES strings stand for the structures. Values after ≈ are worked out from the molar mass of the structure shown.

Sequence of Protein kinase C theta type (Q04759 whole entry): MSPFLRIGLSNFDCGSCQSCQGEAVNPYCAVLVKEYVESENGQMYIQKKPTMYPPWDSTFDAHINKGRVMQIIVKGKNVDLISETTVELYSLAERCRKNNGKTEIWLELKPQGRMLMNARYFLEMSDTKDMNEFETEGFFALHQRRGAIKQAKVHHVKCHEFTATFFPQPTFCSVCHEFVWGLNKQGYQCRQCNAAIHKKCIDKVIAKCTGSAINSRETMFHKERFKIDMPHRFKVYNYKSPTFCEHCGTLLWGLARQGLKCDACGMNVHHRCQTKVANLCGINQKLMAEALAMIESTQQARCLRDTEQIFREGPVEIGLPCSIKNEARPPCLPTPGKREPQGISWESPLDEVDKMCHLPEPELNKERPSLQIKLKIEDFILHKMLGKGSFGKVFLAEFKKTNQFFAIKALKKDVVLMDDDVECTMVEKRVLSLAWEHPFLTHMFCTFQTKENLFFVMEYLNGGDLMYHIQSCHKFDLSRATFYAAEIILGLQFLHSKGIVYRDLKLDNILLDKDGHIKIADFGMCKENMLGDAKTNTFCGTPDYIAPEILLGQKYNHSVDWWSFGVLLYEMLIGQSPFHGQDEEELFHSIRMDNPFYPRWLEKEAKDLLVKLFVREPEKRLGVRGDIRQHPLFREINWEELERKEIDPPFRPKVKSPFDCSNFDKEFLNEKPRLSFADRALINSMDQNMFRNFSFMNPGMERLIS
Sequence of Tyrosine-protein kinase Lyn (P07948 whole entry): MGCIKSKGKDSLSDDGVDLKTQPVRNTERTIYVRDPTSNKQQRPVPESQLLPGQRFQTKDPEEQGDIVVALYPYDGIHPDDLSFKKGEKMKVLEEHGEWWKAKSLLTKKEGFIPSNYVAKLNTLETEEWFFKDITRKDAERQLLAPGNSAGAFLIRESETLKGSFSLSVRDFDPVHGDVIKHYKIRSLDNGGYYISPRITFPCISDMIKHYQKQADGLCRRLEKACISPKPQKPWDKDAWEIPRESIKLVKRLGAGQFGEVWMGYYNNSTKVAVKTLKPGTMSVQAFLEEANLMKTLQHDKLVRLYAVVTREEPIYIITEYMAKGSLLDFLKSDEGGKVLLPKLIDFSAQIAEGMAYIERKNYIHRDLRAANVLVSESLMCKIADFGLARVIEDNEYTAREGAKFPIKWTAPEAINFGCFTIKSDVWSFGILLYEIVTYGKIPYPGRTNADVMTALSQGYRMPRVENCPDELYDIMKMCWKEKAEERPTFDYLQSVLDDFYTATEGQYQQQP
Sequence of Protein kinase C delta type (Q05655 whole entry): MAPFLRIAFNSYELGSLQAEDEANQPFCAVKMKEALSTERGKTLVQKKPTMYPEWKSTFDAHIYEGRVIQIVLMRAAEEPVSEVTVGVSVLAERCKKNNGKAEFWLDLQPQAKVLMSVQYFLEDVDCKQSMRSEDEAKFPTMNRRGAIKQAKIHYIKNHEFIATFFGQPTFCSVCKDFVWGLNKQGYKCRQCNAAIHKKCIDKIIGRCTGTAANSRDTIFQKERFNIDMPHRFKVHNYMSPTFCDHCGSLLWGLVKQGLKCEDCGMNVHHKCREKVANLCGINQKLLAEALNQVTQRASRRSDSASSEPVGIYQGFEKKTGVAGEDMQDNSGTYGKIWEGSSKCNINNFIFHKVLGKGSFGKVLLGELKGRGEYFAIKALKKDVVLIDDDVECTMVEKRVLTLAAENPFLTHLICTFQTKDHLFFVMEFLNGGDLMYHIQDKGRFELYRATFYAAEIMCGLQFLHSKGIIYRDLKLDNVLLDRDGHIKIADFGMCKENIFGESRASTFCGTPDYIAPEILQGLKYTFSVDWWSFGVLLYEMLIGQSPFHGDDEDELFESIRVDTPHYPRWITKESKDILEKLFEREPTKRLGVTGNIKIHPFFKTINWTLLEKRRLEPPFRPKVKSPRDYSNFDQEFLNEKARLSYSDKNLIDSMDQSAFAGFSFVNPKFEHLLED
Sequence of Protein kinase C eta type (P24723 whole entry): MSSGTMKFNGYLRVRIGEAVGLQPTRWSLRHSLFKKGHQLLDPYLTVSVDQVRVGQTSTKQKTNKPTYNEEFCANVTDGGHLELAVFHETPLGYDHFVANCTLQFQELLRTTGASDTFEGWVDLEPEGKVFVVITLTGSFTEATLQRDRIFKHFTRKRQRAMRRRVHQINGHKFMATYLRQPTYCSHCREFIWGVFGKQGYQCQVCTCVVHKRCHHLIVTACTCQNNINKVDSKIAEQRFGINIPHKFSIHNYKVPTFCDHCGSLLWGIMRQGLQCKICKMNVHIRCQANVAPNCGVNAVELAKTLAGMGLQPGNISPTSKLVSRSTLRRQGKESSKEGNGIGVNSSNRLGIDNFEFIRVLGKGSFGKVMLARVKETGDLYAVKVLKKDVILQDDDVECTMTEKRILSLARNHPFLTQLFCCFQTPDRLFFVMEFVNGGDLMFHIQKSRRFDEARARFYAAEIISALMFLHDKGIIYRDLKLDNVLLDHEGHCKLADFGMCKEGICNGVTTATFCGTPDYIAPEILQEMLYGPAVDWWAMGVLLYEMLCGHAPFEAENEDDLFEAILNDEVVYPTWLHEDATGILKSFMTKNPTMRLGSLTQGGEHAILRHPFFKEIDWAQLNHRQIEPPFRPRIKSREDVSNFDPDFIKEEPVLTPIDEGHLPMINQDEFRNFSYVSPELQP
Sequence of Tyrosine-protein kinase Lck (P06239 whole entry): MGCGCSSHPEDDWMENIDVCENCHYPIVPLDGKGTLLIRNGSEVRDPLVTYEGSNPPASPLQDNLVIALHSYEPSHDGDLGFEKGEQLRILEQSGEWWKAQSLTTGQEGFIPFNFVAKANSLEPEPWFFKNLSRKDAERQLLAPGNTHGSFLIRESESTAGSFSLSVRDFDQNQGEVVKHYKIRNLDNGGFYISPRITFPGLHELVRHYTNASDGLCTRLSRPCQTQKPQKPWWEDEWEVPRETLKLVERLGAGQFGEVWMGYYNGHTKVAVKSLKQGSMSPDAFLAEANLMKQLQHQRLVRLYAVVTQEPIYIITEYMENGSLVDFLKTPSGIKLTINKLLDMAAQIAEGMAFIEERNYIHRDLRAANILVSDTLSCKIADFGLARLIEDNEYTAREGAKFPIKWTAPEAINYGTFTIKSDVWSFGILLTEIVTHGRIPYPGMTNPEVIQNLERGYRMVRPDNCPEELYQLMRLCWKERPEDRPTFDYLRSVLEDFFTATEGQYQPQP

For the compound `COc1ccc(CN(C)C)cc1-c1cc2c(Nc3ccc4[nH]ccc4c3C)c(C#N)cnc2s1`, the IC50 in series [1] stood at 0.023 µM; in [2], 0.0087 µM; in series [3] it was 0.024 µM; in series [4], 0.006 µM.
For `Cc1c(Nc2c(C#N)cnc3sc(-c4ccccc4CN(C)C)cc23)ccc2[nH]ccc12`, the 50% inhibitory concentration (IC50) in [1] is 37 µM; in series [3], 0.38 µM.
The matching figures for `Cc1c(Nc2c(C#N)cnc3sc(-c4csc(CN(C)C)c4)cc23)ccc2[nH]ccc12`: 0.41 µM and 0.051 µM.
As to `CCOc1ccc(CN(C)C)cc1-c1cc2c(Nc3ccc4[nH]ccc4c3C)c(C#N)cnc2s1`, the IC50 amounted to 0.074 µM in series [1], 0.0092 µM in series [2] and 0.082 µM in series [3]. Moreover, the Ratio IC50 in series [5] worked out at 9.
`Cc1c(Nc2c(C#N)cnc3sc(-c4ccc(CN(C)C)cc4)cc23)ccc2[nH]ccc12`: the IC50 in series [1] worked out at 0.1 µM; in [3], 0.088 µM.
On to `Cc1ccc(CN(C)C)cc1-c1cc2c(Nc3ccc4[nH]ccc4c3C)c(C#N)cnc2s1`, for which the IC50 came to 0.23 µM in series [1] and 0.41 µM in series [3]. For the same compound, the Ratio IC50 in [5] was 4.
In the case of `COc1ccc(CN(C)C)c(-c2cc3c(Nc4ccc5[nH]ccc5c4C)c(C#N)cnc3s2)c1`, the IC50 in series [1] is 13 µM; in series [3], 0.13 µM; in [6], 22 µM; in series [7], 0.36 µM; in series [8] it was 0.095 µM; in series [9] it was greater than 5 µM. The IC50 in series [10], in series [11], in series [12], in series [13], in [14] and in series [15] was greater than 5 µM throughout. Further, the Papp in [16] is 1.04 ×10⁻⁶ cm/s. This compound yielded a solubility in [17] of 12 µg/mL (≈ 25.7 µM). Also, the half-life in series [18], in series [19] and in series [20] was less than 10 min each time.
With `Cc1c(Nc2c(C#N)cnc3sc(-c4cccc(CN(C)C)c4)cc23)ccc2[nH]ccc12`, the IC50 in [1] was determined as 0.52 µM. In addition, the Ratio IC50 in series [5] amounted to 4.
Take `COc1ccccc1-c1cc2c(Nc3ccc4[nH]ccc4c3C)c(C#N)cnc2s1`: the IC50 in series [1] amounted to 0.31 µM; in series [2], 0.023 µM; in [3] it was 0.25 µM. The Ratio IC50 in series [5] came to 10.
As for `Cc1c(Nc2c(C#N)cnc3sc(-c4cncc(CN(C)C)c4)cc23)ccc2[nH]ccc12`, the IC50 in series [1] stood at 2.2 µM; in series [2], 0.084 µM; in [3] it was 0.17 µM.
In turn, `N#Cc1cnc2sc(-c3ccccc3)cc2c1Nc1ccc2[nH]ccc2c1` registered an IC50 in series [2] of 0.052 µM. This lies in the double-digit nanomolar range.
As to `COc1c(CN(C)C)cccc1-c1cc2c(Nc3ccc4[nH]ccc4c3C)c(C#N)cnc2s1`, the IC50 in series [1] is 1.7 µM; in [3], 0.027 µM. Further, in series [5], the Ratio IC50 was 2.

The values above are taken from ChEMBL document CHEMBL1143298, “Second generation 4-(4-methyl-1H-indol-5-ylamino)-2-phenylthieno[2,3-b]pyridine-5-carbonitrile PKCtheta inhibitors” (Bioorg Med Chem Lett, 2009).
